Here are results for three compounds from patent publication EP1884568A1, “METHOD FOR IDENTIFICATION OF COMPOUND HAVING ANTIDEPRESSANT EFFECT” (Daiichi Sankyo Company, Limited, priority 2005, dated 2006).

For this test, the target named is T1, ph01207 (Homo sapiens, UniProt O60241, DEL308-362).
T1 construct: containing an ORF that encodes 1518 amino acid residues; expressed in transfected cells; host or cells: CHO-K1 (clone ph01207 #3F8-17)
Description: Inhibition of the CCK-8S response (intracellular Ca2+), ph01207 #3F8-17 cell line. It counts as cell-based. Conditions: for response of ph01207 #3F8-17 cell line to the ligand (increase in intracellular Ca^2+ by CCK-8S): compound 10 µg/mL added 35 sec before 10 nM CCK-8S, buffer as control. Here is the method:
Identification of a compound that inhibits a response of ph01207 gene product to a ligand was carried out with a system for measuring a change in intracellular calcium concentration using ph01207 expressing cell line.
ph01207 expressing cell line was constructed as follows. […] Detection of the expression of introduced genes in cells was carried out by FCM analysis using anti-ph01207 antibody
As a result, a plurality of cell lines that stably expressed ph01207 was obtained. Identification of a compound was carried out using ph01207 #3F8-17 cell line that was one of clones among them.
As a ligand, CCK-8S (Peptide Institute) was used. 0.52 mg of CCK-8S (SEQ ID NO: 14) was dissolved in 4.5 mL of 1% NaHCO3 (Wako) to prepare a solution of 0.1 mM concentration. As a test compound, SoftFocus GPCR Target-Directed Library that is a compound library (BioFocus) was used. A 2 mg/mL DMSO solution of each compound was diluted 25-fold with PBS to adjust the concentration to 80 µg/mL for use.
Specifically, identification of a compound was carried out as follows. ph01207 #3F8-17 cell line was seeded in 96-well plates with a black wall surface and transparent bottom) at 3 × 10^4 cells /100 µL medium/well, and cultured at 37°C in the presence of 5% CO2. DMEM/F12 (supplied by Gibco) containing 10% fetal calf serum (supplied by Moregate) was used as the medium. On the next day, 20 µL of 6 × loading buffer was added to each well to allow for a reaction at 37°C for 1 h so as to allow cells to incorporate fluorescent dye contained in the loading buffer. The 6 × loading buffer was prepared by dissolving component A of the FLIPR Calcium 3 Assay Kit (Molecular Devices Corp.) with component B followed by adding probenecid (Sigma) to have a final concentration of 15 mM. After the reaction, CCK-8S (Peptide Institute) and a compound were added to measure a change in the fluorescence intensity time-dependently for each well for 80 sec. […] A time-dependent measurement of the change in the fluorescence intensity was carried out using FLEXstation (Molecular Devices Corp.).

T1 sequence (O60241 with tags, fused parts or gaps isoform O60241-3 DEL296-350): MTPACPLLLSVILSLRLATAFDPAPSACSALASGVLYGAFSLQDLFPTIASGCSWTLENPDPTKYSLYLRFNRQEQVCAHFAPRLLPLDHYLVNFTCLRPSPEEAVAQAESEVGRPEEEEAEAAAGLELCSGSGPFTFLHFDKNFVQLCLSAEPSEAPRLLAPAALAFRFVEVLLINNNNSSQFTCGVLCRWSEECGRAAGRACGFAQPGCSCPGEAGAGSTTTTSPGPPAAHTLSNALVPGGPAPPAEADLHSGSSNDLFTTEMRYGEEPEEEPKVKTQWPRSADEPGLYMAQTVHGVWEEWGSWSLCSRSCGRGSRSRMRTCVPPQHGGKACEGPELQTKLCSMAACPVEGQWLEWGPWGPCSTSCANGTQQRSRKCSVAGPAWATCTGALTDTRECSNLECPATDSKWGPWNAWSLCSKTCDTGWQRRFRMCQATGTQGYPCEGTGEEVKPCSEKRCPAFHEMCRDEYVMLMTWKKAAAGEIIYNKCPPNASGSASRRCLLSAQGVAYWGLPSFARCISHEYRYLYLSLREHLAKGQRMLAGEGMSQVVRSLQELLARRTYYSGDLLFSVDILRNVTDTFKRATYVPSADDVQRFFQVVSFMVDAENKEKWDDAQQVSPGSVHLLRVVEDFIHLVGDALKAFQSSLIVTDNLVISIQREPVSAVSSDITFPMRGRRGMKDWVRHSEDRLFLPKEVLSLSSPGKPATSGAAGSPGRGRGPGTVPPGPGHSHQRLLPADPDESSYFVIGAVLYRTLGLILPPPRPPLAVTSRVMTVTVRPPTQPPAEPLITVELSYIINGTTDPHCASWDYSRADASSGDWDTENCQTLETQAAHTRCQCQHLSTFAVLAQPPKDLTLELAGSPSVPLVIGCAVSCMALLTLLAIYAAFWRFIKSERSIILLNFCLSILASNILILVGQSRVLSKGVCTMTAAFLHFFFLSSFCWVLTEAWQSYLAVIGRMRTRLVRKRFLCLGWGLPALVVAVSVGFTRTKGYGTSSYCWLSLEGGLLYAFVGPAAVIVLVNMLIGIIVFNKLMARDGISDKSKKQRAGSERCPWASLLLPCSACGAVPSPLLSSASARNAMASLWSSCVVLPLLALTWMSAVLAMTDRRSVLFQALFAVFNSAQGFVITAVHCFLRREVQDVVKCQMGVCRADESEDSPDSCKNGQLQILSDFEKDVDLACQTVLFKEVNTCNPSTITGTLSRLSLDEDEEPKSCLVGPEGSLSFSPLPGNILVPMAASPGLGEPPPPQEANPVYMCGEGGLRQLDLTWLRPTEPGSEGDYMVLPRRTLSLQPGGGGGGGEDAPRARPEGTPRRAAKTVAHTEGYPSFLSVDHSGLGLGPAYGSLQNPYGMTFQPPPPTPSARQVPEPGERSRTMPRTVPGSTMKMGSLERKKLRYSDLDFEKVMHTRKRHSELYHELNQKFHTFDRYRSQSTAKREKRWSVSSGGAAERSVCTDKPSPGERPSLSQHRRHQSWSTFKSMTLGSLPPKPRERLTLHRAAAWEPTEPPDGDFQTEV

For `O=C(Nc1cccc(C(F)(F)F)c1)N1CCC2(C1)NCCc1c2[nH]c2ccccc12` (stereo not drawn) [compound A], the “change in fluorescence intensity on addition of the compound alone” value (ph01207 #3F8-17 cell line, compound 10 µg/mL added at 15 sec, before CCK-8S) was “No change”.
On to `O=C(Nc1ccccc1)N1CCC2(CC1)NCCc1c2[nH]c2ccccc12` [compound B], for which the “response of ph01207 #3F8-17 cell line to the ligand (increase in intracellular Ca^2+ by CCK-8S)” value was “inhibited”.
The same measure, in the same setting: then `O=C(c1cnc2ccccc2c1)N1CCC2(CC1)OCc1ccccc1O2` [compound C], with “inhibited”.
